The source of these data is patent publication US12365651B2, “Use of pirfenidone and derivatives for modulation of B lymphocyte activity and organ protection from acute tissue damage” (Washington University, priority 2017, dated 2025).

The assay deals with wild-type (WT) mice (C57BL/6J). The assay can be described thus: Closed-chest ischemia (90 minutes) reperfusion (I/R) injury. It counts as in vivo, mouse. How it is done:
Ischemia Reperfusion (I/R) Injury. Hearts from wild-type (WT) mice (C57BL/6J; purchased from Jackson Laboratory) were subjected to ischemia reperfusion (I/R) injury, using the closed-chest ischemia reperfusion model developed by Entman and colleagues (34), and modified as we have described previously (15). For the studies described herein we used 9-10 week old mice that were instrumented, then at 1 week post instrumentation were anesthetized with 1.5% isoflurane, and subjected to 90 minutes of closed-chest ischemia, followed by reperfusion for 2 weeks.
In order to administer Pirfenidone, mice were fed powdered chow mixed with Pirfenidone (eNovation Chemicals, Bridgewater, NJ, USA, Cat #D404655) at 0.5% in weight or powdered chow alone. […] Unless specifically noted, mice were switched to a diet enriched with Pirfenidone 3 days prior to DT-induced injury or I/R-injury, and maintained on this diet throughout the duration of the experiments. In parallel studies, we fed mice normal chow prior to I/R injury and then administered Pirfenidone acutely at the time of cardiac injury. For these latter studies, mice were injected i.p. with diluent (200 μL phosphate-buffered solution [PBS]) or i.p. with Pirfenidone (200 μL of Pirfenidone [5 mg/mL] in PBS) after reperfusion and the morning after I/R injury (2 injections total). They were switched to Pirfenidone-enriched diet or control diet the evening of I/R injury and maintained on the same diet until completion of the experiment.
Rosa26-DT Mlc2v-Cre and littermate control WT mice were euthanized 14 days after DT injection, and the hearts were removed and weighed to determine the heart-weight-to-tibia-length-ratio. WT mice were euthanized 14 days after I/R injury and the hearts were removed and weighed to determine the heart-weight-to-tibia-length-ratio. Hearts were processed, paraffin-embedded, and stained with hematoxylin/eosin and Masson's trichrome, as described (38). TUNEL staining was performed with the Millipore (Burlington, MA, USA) S7200 ApopTag Peroxidase In Situ Oligo Ligation Apoptosis Detection Kit according to the manufacturer's instruction.
Image acquisition. Ultrasound examination of the cardiovascular system was performed using a Vevo 2100 Ultrasound System (VisualSonics Inc, Toronto, Ontario, Canada) equipped with a 30 MHz linear-array transducer, as previously described (15).
Imaging Protocol. Mice were imaged by echocardiography at the time of ischemia and 2 weeks after reperfusion to evaluate LV structure and function, as described (39). The echocardiographer was blinded to study group assignment. Animals with poor acoustic windows or small areas at risk (<0.45) at the time of ischemia were excluded from further analysis.
For flow cytometry experiments, mice were euthanized in a CO2 chamber and the hearts were perfused with cold PBS, carefully dissected from extracardiac tissue under a stereo microscope, finely minced, suspended in 3 ml of DMEM, and then digested with 120 U of DNAse (Sigma), 180 U of hyaluronidase (Sigma) and 1350 U of Collagenase (Sigma) for 60 minutes at 37Co. The digested material was filtered through 40 μm filters and pelleted by centrifugation (250×g for 3 minutes at 4° C.) in HBSS supplemented with 2% FCS+0.2% bovine serum albumin (BSA). Red blood cells were lysed in ACK lysis buffer (Invitrogen) for 15′ on ice and the remaining cells were resuspended in 300 μL of FACS buffer (PBS with 2% FCS and 2 mM EDTA). Cultured cells were collected for FACS analysis as described above and resuspended in 300 μL of FACS buffer. Samples were labeled with the fluorescently conjugated antibodies outlined in the table below. Cells were stained for 45 minutes on ice, and washed in FACS buffer prior to analysis. All antibodies from Biolegend were used at 0.2 μL per 300 μL sample, while antibodies from BD biosciences were used at 0.4 μL per 300 μL sample. FACS was performed on Beckton Dickinson analyzers (LSRII, Canto, X20 or Fortessa). […]

The mark [1] stands for this setting: Pirfenidone chow from 3 days prior to I/R, 2 weeks post I/R, vs control.
[2] abbreviates: day 4 post I/R, Pirfenidone vs control.

On to `Cc1ccc(=O)n(-c2ccccc2)c1` [Pirfenidone, 5 methyl-1-phenyl-2-[H] pyridone], for which the LVEF result (B-cell depleted (anti-CD20) + Pirfenidone vs B-cell depleted mice, 2 weeks after I/R, p=0.15) is on record as “no significant difference”. Besides, the LV mass entry (B-cell depleted (anti-CD20) + Pirfenidone vs B-cell depleted mice, 2 weeks after I/R, p=0.21) is on record as “no significant difference”. Also, where the note is “B-cell depleted (anti-CD20) + Pirfenidone vs B-cell depleted mice, 2 weeks after I/R, p=0.40”, the LV end-diastolic volume result is given as “no significant difference”. For the same compound, the “percentage of trichrome positive myocardium” value (B-cell depleted (anti-CD20) + Pirfenidone vs B-cell depleted mice, 2 weeks after I/R, p=0.43) is given as “no significant difference”. Where the note is “B-cell depleted (anti-CD20) + Pirfenidone vs B-cell depleted mice, 2 weeks after I/R, p=0.75”, the heart-weight-to-tibia length ratio entry was “no significant difference”. Further, the “area at risk (segmental wall motion score index, SWMSI)” value (Pirfenidone chow from 3 days prior to I/R vs control, p=0.68) was “no difference”. Also, under setting [1], the LV end-diastolic volumes result is listed as “significant (p=0.02) decrease”, the LVEF entry is given as “trend (p=0.08) towards improvement” and the heart-weight-to-tibia length ratio entry is “significant decrease”. Further, the “LV mass measured by 2-D echocardiography” value (Pirfenidone chow from 3 days prior to I/R, 2 weeks post I/R, vs control, p=0.03) was “significant decrease”. Also, the “percentage of myocardium exhibiting collagen staining with Masson's trichrome” value (Pirfenidone chow from 3 days prior to I/R, at 2 weeks, vs normal chow, p=0.4) is “no significant difference”. Also, the heart-weight/tibia length ratio entry (acute administration of Pirfenidone after reperfusion then chow 14 days, vs diluent, p=0.015) was “significantly (p=0.015) reduced”. Further, the area at risk entry (acute administration of Pirfenidone after reperfusion, vs diluent, p=0.47) was “not different”. In addition, under setting [2], the “CD19+ lymphocytes” value is “significant (p<0.001) reduction” and the “subset of CD19+CD11b− B lymphocytes” value is listed as “significant (p<0.001) reduction”. Besides, the “number of myocardial CD19+ CD86high” value (following I/R injury, day 4) is listed as “significant (p<0.03) decrease”.
